Test results published in US9688699B2, “3-(pyrimidine-2-yl)imidazo[1,2-a]pyridines” (Bayer Pharma Aktiengesellschaft, priority 2014, dated 2017).
Counter-ions that a name gives are not always drawn.

Columns and labels:
[1] = target: T1, recombinant guanylate cyclase reporter cell line (Rattus norvegicus, UniProt P19686+P20595); experiment: Effect on a recombinant guanylate cyclase reporter cell line (B-2); format: cell-based; conditions: MEC = minimum effective concentration, in some cases mean values for individual determinations
T1 construct: expressed in transfected cells
T1 sequence (P19686 1-690): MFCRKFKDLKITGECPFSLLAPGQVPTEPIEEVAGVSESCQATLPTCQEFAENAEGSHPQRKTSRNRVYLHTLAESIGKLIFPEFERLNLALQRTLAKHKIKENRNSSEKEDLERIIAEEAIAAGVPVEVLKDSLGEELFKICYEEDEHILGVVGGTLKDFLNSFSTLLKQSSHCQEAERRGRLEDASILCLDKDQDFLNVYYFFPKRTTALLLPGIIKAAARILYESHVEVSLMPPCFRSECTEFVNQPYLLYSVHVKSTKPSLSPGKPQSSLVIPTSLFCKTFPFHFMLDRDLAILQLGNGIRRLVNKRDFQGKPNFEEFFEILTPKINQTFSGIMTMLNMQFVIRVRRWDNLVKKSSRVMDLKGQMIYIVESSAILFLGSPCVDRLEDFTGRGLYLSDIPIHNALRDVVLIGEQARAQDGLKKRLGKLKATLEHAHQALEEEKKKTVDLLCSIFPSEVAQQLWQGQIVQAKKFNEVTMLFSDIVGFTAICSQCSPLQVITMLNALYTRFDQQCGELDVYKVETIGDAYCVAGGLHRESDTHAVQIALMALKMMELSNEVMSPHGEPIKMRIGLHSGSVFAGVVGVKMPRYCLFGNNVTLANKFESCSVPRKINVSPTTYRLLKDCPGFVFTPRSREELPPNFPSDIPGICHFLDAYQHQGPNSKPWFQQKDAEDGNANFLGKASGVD
T1 sequence (P20595 1-619): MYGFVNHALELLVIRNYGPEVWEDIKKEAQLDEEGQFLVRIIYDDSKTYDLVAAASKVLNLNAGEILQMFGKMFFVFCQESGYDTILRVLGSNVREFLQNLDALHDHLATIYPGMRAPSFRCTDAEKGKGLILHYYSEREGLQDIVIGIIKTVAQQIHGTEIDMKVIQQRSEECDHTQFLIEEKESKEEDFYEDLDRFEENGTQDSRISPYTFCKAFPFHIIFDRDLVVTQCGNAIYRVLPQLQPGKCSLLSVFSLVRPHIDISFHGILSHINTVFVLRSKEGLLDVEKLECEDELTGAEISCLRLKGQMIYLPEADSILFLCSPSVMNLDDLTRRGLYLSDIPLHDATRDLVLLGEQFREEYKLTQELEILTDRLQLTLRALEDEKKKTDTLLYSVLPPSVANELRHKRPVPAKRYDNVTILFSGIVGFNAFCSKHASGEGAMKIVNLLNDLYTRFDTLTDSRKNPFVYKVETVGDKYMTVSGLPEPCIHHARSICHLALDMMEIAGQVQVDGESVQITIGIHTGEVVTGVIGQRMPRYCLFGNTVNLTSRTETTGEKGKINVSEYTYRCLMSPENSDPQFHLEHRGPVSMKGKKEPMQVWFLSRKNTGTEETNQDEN
Method: B-2. Effect on a Recombinant Guanylate Cyclase Reporter Cell Line
The cellular activity of the compounds according to the invention is determined using a recombinant guanylate cyclase reporter cell line, as described in F. Wunder et al., Anal. Biochem. 339, 104-112 (2005).
Representative MEC values (MEC=minimum effective concentration) for the compounds of the invention are shown in Table 1 below (in some cases as mean values for individual determinations): […]

[2] = target: T2, human phosphodiesterase 5 (PDE 5) (Homo sapiens, UniProt O76074); experiment: Inhibition of human phosphodiesterase 5 (PDE 5) (B-3); format: biochemical; conditions: PDE 5 preparation from human platelets; [8-3H] cGMP substrate, SPA; in some cases means of individual determinations
T2 construct: PDE 5 preparations are obtained from human platelets by disruption; from tissue; host or cells: human platelets (Mono Q ion exchange fractions with PDE 5 activity)
Method: B-3. Inhibition of Human Phosphodiesterase 5 (PDE 5)
PDE 5 preparations are obtained from human platelets by disruption (Microfluidizer®, 800 bar, 3 passes), followed by centrifugation (75 000 g, 60 min, 4° C.) and ion exchange chromatography of the supernatant on a Mono Q 10/10 column (linear sodium chloride gradient, elution with a 0.2-0.3M solution of sodium chloride in buffer (20 mM Hepes pH 7.2, 2 mM magnesium chloride). Fractions having PDE 5 activity are combined (PDE 5 preparation) and stored at −80° C.
To determine their in vitro action on human PDE 5, the test substances are dissolved in 100% DMSO and serially diluted. Typically, dilution series (1:3) from 200 μM to 0.091 μM are prepared (resulting final concentrations in the test: 4 μM to 0.0018 μM). In each case 2 μl of the diluted substance solutions are placed into the wells of microtitre plates (Isoplate-96/200 W; Perkin Elmer). Subsequently, 50 μl of a dilution of the above-described PDE 5 preparation are added. The dilution of the PDE 5 preparation is chosen such that during the later incubation less than 70% of the substrate are converted (typical dilution: 1:100; dilution buffer: 50 mM tris/hydrochloric acid pH 7.5, 8.3 mM magnesium chloride, 1.7 mM EDTA, 0.2% BSA). The substrate, [8-^3H] cyclic guanosine-3′,5′-monophosphate (1 μCi/μl; Perkin Elmer), is diluted 1:2000 with assay buffer (50 mM tris/hydrochloric acid pH 7.5, 8.3 mM magnesium chloride, 1.7 mM EDTA) to a concentration of 0.0005 μCi/μl. By addition of 50 μl (0.025 μCi) of the diluted substrate, the enzyme reaction is finally started. The test mixtures are incubated at room temperature for 60 min and the reaction is stopped by adding 25 μl of a suspension of 18 mg/ml yttrium scintillation proximity beads in water (phosphodiesterase beads for SPA assays, RPNQ 0150, Perkin Elmer). The microtitre plates are sealed with a film and left to stand at room temperature for 60 min. Subsequently, the plates are analysed for 30 s per well in a Microbeta scintillation counter (Perkin Elmer). IC50 values are determined using the graphic plot of the substance concentration against percentage PDE 5 inhibition.

MEC [1] [µM] | IC50 [2] [nM] | SMILES
10 | 420 | Cc1nc2c(OCc3c(F)ccc(F)c3F)cccn2c1-c1nc2c(c(C(=O)O)n1)C(C)(C)C(=O)N2 [Example 54, 5,5-Dimethyl-2-{2-methyl-8-[(2,3,6-trifluorobenzyl)oxy]imidazo[1,2-a]pyridin-3-yl}-6-oxo-6,7-dihydro-5H-pyrrolo[2,3-d]pyrimidine-4-carboxylic acid]
0.3 | 4 | Cc1nc2c(OCc3c(F)cccc3F)cccn2c1-c1nc2c(c(C(=O)NC3CC3)n1)C(C)(C)C(=O)N2 [Example 55, N-Cyclopropyl-2-{8-[(2,6-difluorobenzyl)oxy]-2-methylimidazo[1,2-a]pyridin-3-yl}-5,5-dimethyl-6-oxo-6,7-dihydro-5H-pyrrolo[2,3-d]pyrimidine-4-carboxamide]
0.1 | 1.7 | Cc1nc2c(OCc3c(F)cccc3F)cccn2c1-c1nc(NCC(C)(C)N)c2c(n1)NC(=O)C2(C)C(F)(F)F (racemic) [Example 41, rac-4-[(2-Amino-2-methylpropyl)amino]-2-{8-[(2,6-difluorobenzyl)oxy]-2-methylimidazo[1,2-a]pyridin-3-yl}-5-methyl-5-(trifluoromethyl)-5,7-dihydro-6H-pyrrolo[2,3-d]pyrimidin-6-one]
3 | 400 | Cc1nc2c(OCc3c(F)ccc(F)c3F)cccn2c1-c1nc2c(c(C(=O)N3CCC(O)C3)n1)C(C)(C)C(=O)N2 (racemic) [Example 62, rac-4-[(3-hydroxypyrrolidin-1-yl)carbonyl]-5,5-dimethyl-2-{2-methyl-8-[(2,3,6-trifluorobenzyl)oxy]imidazo[1,2-a]pyridin-3-yl}-5,7-dihydro-6H-pyrrolo[2,3-d]pyrimidin-6-one]
0.3 | 1.7 | Cc1nc2c(OCc3c(F)ccc(F)c3F)cccn2c1-c1nc2c(c(C(=O)NCCC(F)(F)F)n1)C(C)(C)C(=O)N2 [Example 59, 5,5-dimethyl-2-{2-methyl-8-[(2,3,6-trifluorobenzyl)oxy]imidazo[1,2-a]pyridin-3-yl}-6-oxo-N-(3,3,3-trifluoropropyl)-6,7-dihydro-5H-pyrrolo[2,3-d]pyrimidine-4-carboxamide]
10 | 370 | Cc1nc2c(OCc3c(F)ccc(F)c3F)cccn2c1-c1ncc2c(n1)NC(=O)C2(C)C [Example 75, 5,5-Dimethyl-2-{2-methyl-8-[(2,3,6-trifluorobenzyl)oxy]imidazo[1,2-a]pyridin-3-yl}-5,7-dihydro-6H-pyrrolo[2,3-d]pyrimidin-6-one formate]
3 | 14 | Cc1nc2c(OCc3c(F)cccc3F)cccn2c1-c1nc(NCC(C)(N)C(F)(F)F)c2c(n1)NC(=O)C2(C)C (racemic) [Example 40, rac-4-[(2-Amino-3,3,3-trifluoro-2-methylpropyl)amino]-2-{8-[(2,6-difluorobenzyl)oxy]-2-methylimidazo[1,2-a]pyridin-3-yl}-5,5-dimethyl-5,7-dihydro-6H-pyrrolo[2,3-d]pyrimidin-6-one]
3 | 5.5 | Cc1nc2c(OCc3c(F)cccc3F)cccn2c1-c1nc2c(c(-n3cc(O)cn3)n1)C(C)(C)C(=O)N2 [Example 43, 2-{8-[(2,6-Difluorobenzyl)oxy]-2-methylimidazo[1,2-a]pyridin-3-yl}-4-(4-hydroxy-1H-pyrazol-1-yl)-5,5-dimethyl-5,7-dihydro-6H-pyrrolo[2,3-d]pyrimidin-6-one]
3 | 5.2 | Cc1nc2c(OCc3c(F)ccc(F)c3F)cccn2c1-c1nc2c(c(C(=O)NCC(C)(C)N)n1)C(C)(C)C(=O)N2 [Example 58, N-(2-amino-2-methylpropyl)-5,5-dimethyl-2-{2-methyl-8-[(2,3,6-trifluorobenzyl)oxy]imidazo[1,2-a]pyridin-3-yl}-6-oxo-6,7-dihydro-5H-pyrrolo[2,3-d]pyrimidin-4-carboxamide trifluoroacetate]
2 | 590 | Cc1nc2c(OCc3c(F)cccc3F)cccn2c1-c1nc(I)c2c(n1)NC(=O)C2(C)C(F)(F)F (racemic) [Example 7, rac-2-{8-[(2,6-Difluorobenzyl)oxy]-2-methylimidazo[1,2-a]pyridin-3-yl}-4-iodo-5-methyl-5-(trifluoromethyl)-5,7-dihydro-6H-pyrrolo[2,3-d]pyrimidin-6-one trifluoroacetate (racemate)]
3 | 36 | Cc1nc2c(OCc3c(F)ccc(F)c3F)cccn2c1-c1nc2c(c(N3CCC(CC(=O)O)CC3)n1)C(C)(C)C(=O)N2 [Example 38, [1-(5,5-dimethyl-2-{2-methyl-8-[(2,3,6-trifluorobenzyl)oxy]imidazo[1,2-a]pyridin-3-yl}-6-oxo-6,7-dihydro-5H-pyrrolo[2,3-d]pyrimidin-4-yl)piperidin-4-yl]acetic acid]
3 | 8 | Cc1nc2c(OCc3c(F)cccc3F)cccn2c1-c1nc(NC[C@@H](O)CO)c2c(n1)NC(=O)C2(C)C [Example 23, 2-{8-[(2,6-difluorobenzyl)oxy]-2-methylimidazo[1,2-a]pyridin-3-yl}-4-{[(2R)-2,3-dihydroxypropyl]amino}-5,5-dimethyl-5,7-dihydro-6H-pyrrolo[2,3-d]pyrimidin-6-one]
1 | 5.3 | Cc1nc2c(OCc3c(F)ccc(F)c3F)cccn2c1-c1nc(NCC(C)(C)O)c2c(n1)NC(=O)C2(C)C [Example 34, 4-[(2-hydroxy-2-methylpropyl)amino]-5,5-dimethyl-2-{2-methyl-8-[(2,3,6-trifluorobenzyl)oxy]imidazo[1,2-a]pyridin-3-yl}-5,7-dihydro-6H-pyrrolo[2,3-d]pyrimidin-6-one]
3 | 220 | Cc1nc2c(OCc3c(F)ccc(F)c3F)cccn2c1-c1nc2c(c(C(=O)N3CCC(CO)C3)n1)C(C)(C)C(=O)N2 (racemic) [Example 63, rac-4-{[3-(hydroxymethyl)pyrrolidin-1-yl]carbonyl}-5,5-dimethyl-2-{2-methyl-8-[(2,3,6-trifluorobenzyl)oxy]imidazo[1,2-a]pyridin-3-yl}-5,7-dihydro-6H-pyrrolo[2,3-d]pyrimidin-6-one]
